Measured values from patent publication US8247211B2, “Glycopeptide antibiotics” (American Cyanamid Company, priority 2001, dated 2012).

Experiments:
Test in all cases: In vitro antibacterial evaluation: minimum inhibitory concentration (MIC), broth dilution method
Format in all cases: cell-based
Staphylococcus sp. = conditions: for MIC Staphylococcus aureus (ATCC 29213) / MIC Staphylococcus aureus (GC 1131) / MIC Staphylococcus aureus (GC 3051) / MIC Staphylococcus aureus (GC 3053) / MIC Staphylococcus aureus (GC 4541) / MIC Staphylococcus aureus (GC 4542) / MIC Staphylococcus aureus (GC 4544) / MIC Staphylococcus aureus (GC 4545): broth dilution, 18 hours at 35° C.
Procedure, shortened: (§1)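 NCCLS M7-A2 broth dilution with Mueller-Hinton II, testing 64-0.06 μg/mL antibiotic against 5×10^5 CFU/mL inocula. Test strains include recent methicillin-, penicillin- or vancomycin-resistant clinical isolates. MIC is the lowest concentration preventing growth.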

Enterococcus sp. = test system: Enterococcus sp.
Procedure, shortened: as §1

Streptococcus sp. = test system: Streptococcus sp.
Procedure, shortened: as §1

Escherichia coli = test system: Escherichia coli
Procedure, shortened: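 An MIC is reported for each organism as the least concentration giving inhibition, using broth dilution over 64-0.06 μg/mL with a 5×10^5 CFU/mL inoculum.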

[1] = broth dilution, inoculum 5×10^5 CFU/mL, 18 hours at 35° C.

CC(c1ccccc1)C1NC(=O)CNC(=O)C(CO)NC(=O)C(C(O)C2CNC(=N)N2C2OC(CO)C(O)C(O)C2O)NC(=O)C(C(O)C2CNC(=N)N2)NC(=O)C(Cc2ccc(OC3OC(CO)C(OC4OC5COC(c6cccc(OCc7ccc([N+](=O)[O-])cc7)c6)OC5C(O)C4O)C(O)C3O)cc2)NC1=O (stereo not drawn) [Example 182, Cyclo[glycyl-β-methylphenylalanyl-O-[4-O-[4,6-O-(3-[[(4-nitrophenyl)methoxy]benzylidene]hexopyranosyl]hexopyranosyl]tyrosyl-3-(2-iminoimidazolidin-4-yl)seryl-3-β-hexopyranosyl-2-iminoimidazolidin-4-yl)serylseryl]]
32 µg/mL: MIC Streptococcus agalactiae (GC 4564) (Streptococcus sp.; [1]) | MIC Streptococcus agalactiae (GC 4564) (Streptococcus sp.; strain GC 4564)
4 µg/mL: MIC Streptococcus pneumoniae (ATCC 6301) (Streptococcus sp.; [1]) | MIC Streptococcus pneumoniae (ATCC 6301) (Streptococcus sp.; strain ATCC 6301)
64 µg/mL: MIC Streptococcus pyogenes (GC 4563) (Streptococcus sp.; [1]) | MIC Streptococcus pyogenes (GC 4563) (Streptococcus sp.; strain GC 4563)
8 µg/mL: MIC Streptococcus pneumoniae (GC 1894) (Streptococcus sp.; [1]) | MIC Streptococcus pneumoniae (GC 4565) (Streptococcus sp.; [1]) | MIC Streptococcus pneumoniae (GC 1894) (Streptococcus sp.; strain GC 1894) | MIC Streptococcus pneumoniae (GC 4565) (Streptococcus sp.; strain GC 4565)
>64 µg/mL: MIC Staphylococcus aureus (ATCC 29213) (Staphylococcus sp.; 5×10^5 CFU/mL) | MIC Staphylococcus aureus (GC 1131) (Staphylococcus sp.; 5×10^5 CFU/mL) | MIC Staphylococcus aureus (GC 3051) (Staphylococcus sp.; 5×10^5 CFU/mL) | MIC Staphylococcus aureus (GC 3053) (Staphylococcus sp.; 5×10^5 CFU/mL) | MIC Staphylococcus aureus (GC 4541) (Staphylococcus sp.; 5×10^5 CFU/mL) | MIC Staphylococcus aureus (GC 4542) (Staphylococcus sp.; 5×10^5 CFU/mL) | MIC Staphylococcus aureus (GC 4544) (Staphylococcus sp.; 5×10^5 CFU/mL) | MIC Staphylococcus aureus (GC 4545) (Staphylococcus sp.; 5×10^5 CFU/mL) | MIC Staphylococcus aureus (ATCC 29213) (Staphylococcus sp.; strain ATCC 29213) | MIC Staphylococcus aureus (GC 1131) (Staphylococcus sp.; strain GC 1131) | MIC Staphylococcus aureus (GC 3051) (Staphylococcus sp.; strain GC 3051) | MIC Staphylococcus aureus (GC 3053) (Staphylococcus sp.; strain GC 3053) | MIC Staphylococcus aureus (GC 4541) (Staphylococcus sp.; strain GC 4541) | MIC Staphylococcus aureus (GC 4542) (Staphylococcus sp.; strain GC 4542) | MIC Staphylococcus aureus-SMITH (GC 4543) (Staphylococcus sp.; strain GC 4543) | MIC Staphylococcus aureus (GC 4544) (Staphylococcus sp.; strain GC 4544) | MIC Staphylococcus aureus (GC 4545) (Staphylococcus sp.; strain GC 4545) | MIC Staphylococcus haemolyticus (GC 4546) (Staphylococcus sp.; strain GC 4546) | MIC Coagulase Negative Staphylococcus (GC 4547) (Staphylococcus sp.; strain GC 4547) | MIC Coagulase Negative Staphylococcus (GC 4548) (Staphylococcus sp.; strain GC 4548) | MIC Coagulase Negative Staphylococcus (GC 4549) (Staphylococcus sp.; strain GC 4549) | MIC Coagulase Negative Staphylococcus (GC 4551) (Staphylococcus sp.; strain GC 4551) | MIC Coagulase Negative Staphylococcus (GC 6257) (Staphylococcus sp.; strain GC 6257) | MIC Enterococcus avium (GC 4558) (Enterococcus sp.; [1]) | MIC Enterococcus faecalis (ATCC 29212) (Enterococcus sp.; [1]) | MIC Enterococcus faecalis (GC 2242) (Enterococcus sp.; [1]) | MIC Enterococcus faecalis (GC 2691) (Enterococcus sp.; [1]) | MIC Enterococcus faecalis (GC 3059) (Enterococcus sp.; [1]) | MIC Enterococcus faecalis (GC 4552) (Enterococcus sp.; [1]) | MIC Enterococcus faecalis (GC 4553) (Enterococcus sp.; [1]) | MIC Enterococcus faecalis (GC 4554) (Enterococcus sp.; [1]) | MIC Enterococcus faecalis (GC 6189) (Enterococcus sp.; [1]) | MIC Enterococcus faecium (GC 2243) (Enterococcus sp.; [1]) | MIC Enterococcus faecium (GC 4556) (Enterococcus sp.; [1]) | MIC Enterococcus faecium (GC 4557) (Enterococcus sp.; [1]) | MIC Enterococcus faecalis (ATCC 29212) (Enterococcus sp.; strain ATCC 29212) | MIC Enterococcus faecalis (GC 2242) (Enterococcus sp.; strain GC 2242) | MIC Enterococcus faecium (GC 2243) (Enterococcus sp.; strain GC 2243) | MIC Enterococcus faecalis (GC 2691) (Enterococcus sp.; strain GC 2691) | MIC Enterococcus faecalis (GC 3059) (Enterococcus sp.; strain GC 3059) | MIC Enterococcus faecalis (GC 4552) (Enterococcus sp.; strain GC 4552) | MIC Enterococcus faecalis (GC 4553) (Enterococcus sp.; strain GC 4553) | MIC Enterococcus faecalis (GC 4554) (Enterococcus sp.; strain GC 4554) | MIC Enterococcus faecium (GC 4556) (Enterococcus sp.; strain GC 4556) | MIC Enterococcus faecium (GC 4557) (Enterococcus sp.; strain GC 4557) | MIC Enterococcus avium (GC 4558) (Enterococcus sp.; strain GC 4558) | MIC Enterococcus faecalis (GC 6189) (Enterococcus sp.; strain GC 6189) | MIC Escherichia coli (ATCC 25922) (Escherichia coli; strain ATCC 25922) | MIC Escherichia coli (GC 4559) (Escherichia coli; strain GC 4559) | MIC Escherichi coli (GC 4560) (Escherichia coli; strain GC 4560)
